The values that follow come from patent US20240398757A1 (COCRYSTAL PHARMA, INC., priority 2022, published 2024).

In general, IC50 refers to the midpoint of a concentration-inhibition curve. Read a low IC50 as greater potency in that assay.

This test concerns the target T1, SARS2 protease (Severe acute respiratory syndrome coronavirus 2, UniProt P0DTD1).
T1 construct: SARS2 protease was added to a final concentration of 30 nM
Put plainly: SARS-CoV-2 protease inhibition assay (SARS2 FRET protease assay). The test is classed as biochemical. The following applies: IC50 (μM), SARS2 protease 30 nM, peptide substrate 1.3 μM, 120 minutes at 37° C., compounds 20 μM to 0.075 nM.
`CCC1(C[C@H](NC(=O)OC(c2ccccc2)C(F)(F)c2cccc(Cl)c2)C(=O)N[C@@H](C[C@@H]2CCNC2=O)C(=O)C(=O)NC2CC2)CC1` (stereo partly drawn) [Compound A281, 2-(3-chlorophenyl)-2,2-difluoro-1-phenylethyl ((S)-1-(((S)-4-(cyclopropylamino)-3,4-dioxo-1-((S)-2-oxopyrrolidin-3-yl)butan-2-yl)amino)-3-(1-ethylcyclopropyl)-1-oxopropan-2-yl)carbamate] showed an IC50 of 0.001 µM.

In turn, `O=C[C@H](C[C@@H]1CCNC1=O)NC(=O)[C@H](CC1CCCCC1)NC(=O)O[C@@H](c1ccccc1)C(F)(F)c1cccc(Cl)c1` [Compound A125] registered a half-inhibitory concentration (IC50) of 0.0042 µM.

As to `CCCC[C@H](NC(=O)CC(O)(c1ccccc1)C(C)(C)c1cccc(Cl)c1)C(=O)N[C@@H](C[C@@H]1CCNC1=O)C(=O)C(=O)NCC` (stereo partly drawn) [Compound A261, (2S)-2-(4-(3-chlorophenyl)-3-hydroxy-4-methyl-3-phenylpentanamido)-N—((S)-4-(ethylamino)-3,4-dioxo-1-((S)-2-oxopyrrolidin-3-yl)butan-2-yl)hexanamide], 1.09 µM corresponded to half-maximal inhibition (IC50).

The compound `CCNC(=O)C(=O)[C@H](C[C@@H]1CCNC1=O)NC(=O)[C@H](CC1(CC)CCC1)NC(=O)O[C@H](c1ccccc1)C(F)(F)c1cccc(Cl)c1` [Compound A322] registered an IC50 of 1.72 µM.

`CCCC[C@H](NC(=O)O[C@H](c1ccccc1)C(C)(C)c1cccc(Cl)c1)C(=O)N[C@H](C=O)C[C@@H]1CCNC1=O` [Compound A62]: the IC50 is 0.148 µM.

The compound `CCCC[C@H](NC(=O)O[C@H](c1ccccc1)C(F)(F)c1cccc(Cl)c1)C(=O)N[C@@H](C[C@@H]1CCNC1=O)C(=O)C(=O)NC1CC1` [Compound A137] showed an IC50 of 0.0005 µM.

Compound `CC(C)C[C@H](NC(=O)O[C@@H](C(C)C)C(F)(F)c1cccc(-c2ccccc2)c1)C(=O)N[C@H](C=O)C[C@@H]1CCNC1=O` [Compound A272, (S)-1-([1,1′-biphenyl]-3-yl)-1,1-difluoro-3-methylbutan-2-yl ((S)-4-methyl-1-oxo-1-(((S)-1-oxo-3-((S)-2-oxopyrrolidin-3-yl)propan-2-yl)amino)pentan-2-yl)carbamate] displayed an IC50 of 0.001 µM.

In turn, `CC(C)C[C@H](NC(=O)OC(c1ccccc1)C(F)(F)c1cccc(Cl)c1)C(=O)N[C@H](C#N)C[C@@H]1CCNC1=O` (stereo partly shown) [Compound A41] came in with an IC50 of 2.29 µM.

As to `O=C(N[C@@H](CC(F)F)C(=O)N[C@@H](C[C@@H]1CCNC1=O)C(=O)C(=O)NC1CC1)OC(c1ccccc1)C(F)(F)c1cccc(Cl)c1` (stereo partly drawn) [Compound A230, 2-(3-chlorophenyl)-2,2-difluoro-1-phenylethyl ((S)-1-(((S)-4-(cyclopropylamino)-3,4-dioxo-1-((S)-2-oxopyrrolidin-3-yl)butan-2-yl)amino)-4,4-difluoro-1-oxobutan-2-yl)carbamate], the concentration for half-maximal inhibition (IC50) is 0.007 µM.

Take `CCNC(=O)C(=O)[C@H](C[C@@H]1CCNC1=O)NC(=O)[C@H](Cc1cccc(Cl)c1)NC(=O)OC(c1ccccc1)C(F)(F)c1cccc(Cl)c1` (stereo partly shown) [Compound A287]: half-maximal inhibition (IC50) was put at 1.06 µM.

As to `CCCC[C@H](NC(=O)OC(c1ccccc1)C(F)(F)c1cccc(Cl)c1)C(=O)NC(C)(C=O)CC1CCNC1=O` (stereo partly shown) [Compound A192], half-maximal inhibition (IC50) required 0.978 µM.

As to `O=C[C@H](C[C@@H]1CCNC1=O)NC(=O)[C@H](CC1CCCCC1)NC(=O)OC(c1ccccc1)C(F)(F)c1cccc(F)c1` (stereo partly drawn) [Compound A67, 2,2-difluoro-2-(3-fluorophenyl)-1-phenylethyl ((S)-3-cyclohexyl-1-oxo-1-(((S)-1-oxo-3-((S)-2-oxopyrrolidin-3-yl)propan-2-yl)amino)propan-2-yl)carbamate], the IC50 was 0.002 µM.

`CC(C)C[C@H](NC(=O)O[C@H](c1ccccc1)C(F)(F)c1cccc(F)c1)C(=O)N[C@H](C=O)C[C@@H]1CCNC1=O` [Compound A152] had an IC50 of 0.0078 µM.

Take `CCCC[C@H](NC(=O)OC(c1ccccc1)C(F)(F)c1cccc(Cl)c1)C(=O)N[C@@H](Cc1ccc[nH]c1=O)C(=O)C(=O)NC1CC1` (stereo partly drawn) [Compound A285, 2-(3-chlorophenyl)-2,2-difluoro-1-phenylethyl ((S)-1-(((S)-4-(cyclopropylamino)-3,4-dioxo-1-(2-oxo-1,2-dihydropyridin-3-yl)butan-2-yl)amino)-1-oxohexan-2-yl)carbamate]: the 50% inhibitory concentration (IC50) was determined as 1.3 µM. This IC50 is about 170-fold higher than that of the compound before.

On to `CCCCC[C@H](NC(=O)O[C@@H](c1ccccc1)C(F)(F)c1cccc(Cl)c1)C(=O)N[C@H](C=O)C[C@@H]1CCNC1=O` [Compound A151], for which the IC50 was found to be 0.0002 µM.

The compound `CCCC[C@H](NC(=O)OC(c1cccc(F)c1)C1(c2cccc(Cl)c2)CC1)C(=O)N[C@H](C=O)C[C@@H]1CCNC1=O` (stereo partly shown) [Compound A96] displayed a half-maximal inhibitory concentration (IC50) of 0.007 µM.

Consider `CC(C)C[C@H](NC(=O)OC(c1ccccc1)C(F)(F)c1cccc(C2CC2)c1)C(=O)N[C@@H](C[C@@H]1CCNC1=O)C(=O)C(=O)NC1CC1` (stereo partly shown) [Compound A170], for which the midpoint of inhibition, the IC50, lay at 0.0002 µM.

Compound `CCCC[C@H](NC(=O)O[C@@H](c1cccc(F)c1)C(F)(F)c1cccc(F)c1)C(=O)N[C@H](C=O)C[C@@H]1CCNC1=O` [Compound A217] yielded an IC50 of 0.01 µM.

Compound `O=C(N[C@@H](CCC(F)F)C(=O)N[C@@H](C[C@@H]1CCNC1=O)C(=O)C(=O)NC1CC1)O[C@@H](c1ccccc1)C(F)(F)c1cccc(Cl)c1` [Compound A227, (S)-2-(3-chlorophenyl)-2,2-difluoro-1-phenylethyl ((S)-1-(((S)-4-(cyclopropylamino)-3,4-dioxo-1-((S)-2-oxopyrrolidin-3-yl)butan-2-yl)amino)-5,5-difluoro-1-oxopentan-2-yl)carbamate] displayed an IC50 of 0.412 µM. This IC50 lies about 41-fold higher than the previous one.

`CCCC[C@H](NC(=O)OC(c1cccc(F)c1)C(F)(F)c1cccc(F)c1)C(=O)N[C@H](C=O)C[C@@H]1CCNC1=O` (stereo partly shown) [Compound A78] had an IC50 of 0.009 µM. Against the preceding compound, the IC50 is about 46-fold lower.

Consider `CCCC[C@H](NC(=O)OC(c1ccccc1)C(F)(F)c1cccc(Cl)c1)C(=O)N[C@H](C=O)Cc1ccc[nH]c1=O` (stereo partly drawn) [Compound A292, 2-(3-chlorophenyl)-2,2-difluoro-1-phenylethyl ((S)-1-oxo-1-(((S)-1-oxo-3-(2-oxo-1,2-dihydropyridin-3-yl)propan-2-yl)amino)hexan-2-yl)carbamate], for which the IC50 amounted to 0.159 µM.

In turn, `CCCC[C@H](NC(=O)OC(c1ccccc1)C(F)(F)c1cccc(Cl)c1)C(=O)N[C@@H](C[C@@H]1CCNC1=O)C(=O)C(=O)NCC` (stereo partly shown) [Compound A138] yielded an IC50 of 0.028 µM.

For the compound `CCCC[C@H](NC(=O)O[C@H](c1ccccc1)C(F)(F)c1cccc(Cl)c1)C(=O)N[C@H](C=O)C[C@@H]1CCNC1=O` [Compound A110, (R)-2-(3-chlorophenyl)-2,2-difluoro-1-phenylethyl ((S)-1-oxo-1-(((S)-1-oxo-3-((S)-2-oxopyrrolidin-3-yl)propan-2-yl)amino)hexan-2-yl)carbamate], the half-maximal inhibitory concentration (IC50) stood at 0.0002 µM.

`CC(C)C[C@H](NC(=O)O[C@@H](c1ccccc1)C(C)(C)c1cccc(Cl)c1)C(=O)N[C@H](C=O)C[C@@H]1CCCNC1=O` [Compound A158]: the concentration for half-maximal inhibition (IC50) was found to be 0.002 µM.

Consider `CCCCC[C@H](NC(=O)O[C@@H](c1ccccc1)C(F)(F)c1cccc(Cl)c1)C(=O)N[C@@H](C[C@@H]1CCNC1=O)C(=O)C(=O)NC1CC1` [Compound A33], for which inhibition was half-maximal at 0.3 µM (IC50).

In the case of `CCCC[C@H](NC(=O)OC(c1ccccc1)C(F)(F)c1cccc(Cl)c1)C(=O)N[C@H](C=O)C[C@H]1CCNC1=O` (stereo partly shown) [Compound A183], the IC50 came to 0.019 µM.

`CCCC[C@H](NC(=O)OC(c1ccccc1)C(C)(C)c1cccc(F)c1)C(=O)N[C@@H](C[C@@H]1CCNC1=O)C(=O)C(=O)NCC` (stereo partly shown) [Compound A68] showed an IC50 of 0.029 µM.

`CC(C)(c1cccc(F)c1)C(OC(=O)N[C@@H](CC1CCCCC1)C(=O)N[C@@H](C[C@@H]1CCNC1=O)C(=O)C(=O)NC1CC1)c1ccccc1` (stereo partly shown) [Compound A47] yielded an IC50 of 0.62 µM.

Compound `CC(C)C[C@H](NC(=O)OC(c1ccccc1)C(C)(C)c1cccc(C(F)(F)F)c1)C(=O)N[C@@H](C[C@@H]1CCNC1=O)C(=O)C(=O)NC1CC1` (stereo partly shown) [Compound A197] had an IC50 of 0.027 µM. This IC50 is about 23-fold lower than that of the compound before.

`O=C[C@H](C[C@H]1CCNC1=O)NC(=O)[C@H](CC1CCCCC1)NC(=O)OC(c1ccccc1)C(F)(F)c1cccc(Cl)c1` (stereo partly shown) [Compound A161] gave a half-inhibitory concentration (IC50) of 0.582 µM.

Turning to `CCC(=O)OC([C@H](C[C@@H]1CCNC1=O)NC(=O)[C@H](CC1CCCCC1)NC(=O)OC(c1ccccc1)C(F)(F)c1cccc(Cl)c1)S(=O)(=O)O` (stereo partly shown) [Compound A101], the half-maximal inhibitory concentration (IC50) is 0.178 µM.

As to `CCNC(=O)C(=O)[C@H](C[C@H]1CCNC1=O)NC(=O)[C@H](CC(C)C)NC(=O)OC(c1ccccc1)C(F)(F)c1cccc(Cl)c1` (stereo partly shown) [Compound A188], half-maximal inhibition (IC50) required 0.392 µM.

Consider `CCC(C)C[C@H](NC(=O)OC(c1ccccc1)C(F)(F)c1cccc(Cl)c1)C(=O)N[C@H](C=O)C[C@@H]1CCNC1=O` (stereo partly shown) [Compound A234], for which the midpoint of inhibition, the IC50, lay at 0.001 µM.

The compound `CCCC[C@H](NC(=O)O[C@H](c1ccccc1)C(C)(C)c1cccc(F)c1)C(=O)N[C@@H](C[C@@H]1CCNC1=O)C(=O)C(=O)NCC` [Compound A216] yielded an IC50 of 0.006 µM.

For `O=C[C@H](C[C@@H]1CCNC1=O)NC(=O)[C@H](CC1CCC1)NC(=O)O[C@H](c1ccccc1)C(F)(F)c1cccc(Cl)c1` [Compound A205], the IC50 is 0.0002 µM. Against the preceding compound, the IC50 is about 30-fold lower.

On to `CCC(CC)(c1cccc(Cl)c1)C(OC(=O)N[C@@H](CC(C)C)C(=O)N[C@@H](C[C@@H]1CCNC1=O)C(=O)C(=O)NC1CC1)c1ccccc1` (stereo partly shown) [Compound A6], for which the IC50 came out at 0.24 µM. Against the preceding compound, the IC50 is about 1200-fold higher.

`CCCC[C@H](NC(=O)O[C@H](c1ccccc1)C(F)(F)c1cccc(F)c1)C(=O)N[C@H](C=O)C[C@@H]1CCNC1=O` [Compound A144] had an IC50 of 0.023 µM.

For the compound `CC(C)C[C@H](NC(=O)O[C@H](c1ccccc1)C(C)(C)c1cccc(Cl)c1)C(=O)N[C@@H](C[C@@H]1CCNC1=O)C(=O)C(=O)NC1CC1` [Compound A5], the IC50 was 2.79 µM.

On to `CCCC[C@H](NC(=O)OC(c1ccccc1)C(F)(F)c1cccc(Cl)c1)C(=O)NC(CC1CC(C)(C)NC1=O)C(=O)C(=O)NC1CC1` (stereo partly shown) [Compound A73], for which the IC50 amounted to 1.39 µM.

As for `CC(C)C[C@H](NC(=O)OC(c1cccc(Cl)c1)C1(c2cccc(Cl)c2)CCCCC1)C(=O)N[C@@H](C[C@@H]1CCNC1=O)C(=O)C(=O)NC1CC1` (stereo partly shown) [Compound A65], 0.571 µM corresponded to half-maximal inhibition (IC50). Compared with the last compound, the IC50 is about 2.4-fold lower.
